Assay results published in PubChem BioAssay (NCI).
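Test compounds were applied to cells in 96-well plates for 48 hours at 5 doses. TGI is the concentration that stops growth completely.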

What was measured:
Test in all cases: inhibition of tumour cell growth, NCI panel, 48 h
KM12 colon = system: KM12 colon
M19-MEL melanoma = system: M19-MEL melanoma
SF-268 CNS = system: SF-268 CNS
RXF 393 renal = system: RXF 393 renal
OVCAR-5 ovarian = system: OVCAR-5 ovarian
MOLT-4 leukemia = system: MOLT-4 leukemia
OVCAR-3 ovarian = system: OVCAR-3 ovarian
IGROV1 ovarian = system: IGROV1 ovarian
SF-539 CNS = system: SF-539 CNS
UACC-62 melanoma = system: UACC-62 melanoma
M14 melanoma = system: M14 melanoma
LOX IMVI melanoma = system: LOX IMVI melanoma
HOP-62 NSCLC = system: HOP-62 NSCLC
KM20L2 colon = system: KM20L2 colon
HOP-92 NSCLC = system: HOP-92 NSCLC
COLO 205 colon = system: COLO 205 colon
DMS 273 small cell lung = system: DMS 273 small cell lung
DMS 114 small cell lung = system: DMS 114 small cell lung
NCI-H23 lung = system: NCI-H23 lung
NCI-H522 lung = system: NCI-H522 lung
HOP-18 NSCLC = system: HOP-18 NSCLC
786-0 renal = system: 786-0 renal
U251 CNS = system: U251 CNS
SK-MEL-28 melanoma = system: SK-MEL-28 melanoma
K-562 leukemia = system: K-562 leukemia
ACHN renal = system: ACHN renal
CCRF-CEM leukemia = system: CCRF-CEM leukemia
SK-OV-3 ovarian = system: SK-OV-3 ovarian
SNB-75 CNS = system: SNB-75 CNS
SF-295 CNS = system: SF-295 CNS
OVCAR-4 ovarian = system: OVCAR-4 ovarian
SW-620 colon = system: SW-620 colon
DLD-1 colon = system: DLD-1 colon
CAKI-1 renal = system: CAKI-1 renal
SK-MEL-2 melanoma = system: SK-MEL-2 melanoma
SK-MEL-5 melanoma = system: SK-MEL-5 melanoma
RPMI-8226 leukemia = system: RPMI-8226 leukemia
UACC-257 melanoma = system: UACC-257 melanoma
HT29 colon = system: HT29 colon
NCI-H226 lung = system: NCI-H226 lung
XF 498 CNS = system: XF 498 CNS
MALME-3M melanoma = system: MALME-3M melanoma
HL-60(TB) leukemia = system: HL-60(TB) leukemia
SR leukemia = system: SR leukemia
OVCAR-8 ovarian = system: OVCAR-8 ovarian
SN12C renal = system: SN12C renal
A549 NSCLC = system: A549 NSCLC
SNB-78 CNS = system: SNB-78 CNS
EKVX NSCLC = system: EKVX NSCLC
HCC-2998 colon = system: HCC-2998 colon
HCT-116 colon = system: HCT-116 colon
SNB-19 CNS = system: SNB-19 CNS
LXFL 529 NSCLC = system: LXFL 529 NSCLC
TK-10 renal = system: TK-10 renal
HCT-15 colon = system: HCT-15 colon
NCI-H460 lung = system: NCI-H460 lung

What does the source list for `Cc1cc(C)c(-n2c(-c3ccccc3)cs/c2=N\N=C2C=C(C(C)(C)C)C(=O)C(C(C)(C)C)=C2)c(C)c1`?
TGI (KM12 colon): > 100 µM; TGI (M19-MEL melanoma): > 100 µM; TGI (SF-268 CNS): > 100 µM; TGI (RXF 393 renal): > 100 µM; TGI (OVCAR-5 ovarian): > 100 µM; TGI (MOLT-4 leukemia): > 100 µM; TGI (OVCAR-3 ovarian): > 100 µM; TGI (IGROV1 ovarian): > 100 µM; TGI (SF-539 CNS): > 100 µM; TGI (UACC-62 melanoma): > 100 µM; TGI (M14 melanoma): > 100 µM; TGI (LOX IMVI melanoma): > 100 µM; TGI (HOP-62 NSCLC): > 100 µM; TGI (KM20L2 colon): > 100 µM; TGI (HOP-92 NSCLC): > 100 µM; TGI (COLO 205 colon): > 100 µM; TGI (DMS 273 small cell lung): > 100 µM; TGI (DMS 114 small cell lung): > 100 µM; TGI (NCI-H23 lung): > 100 µM; TGI (NCI-H522 lung): > 100 µM; TGI (HOP-18 NSCLC): > 100 µM; TGI (786-0 renal): > 100 µM; TGI (U251 CNS): > 100 µM; TGI (SK-MEL-28 melanoma): > 100 µM; TGI (K-562 leukemia): > 100 µM; TGI (ACHN renal): > 100 µM; TGI (CCRF-CEM leukemia): > 100 µM; TGI (SK-OV-3 ovarian): > 100 µM; TGI (SNB-75 CNS): 94.6 µM; TGI (SF-295 CNS): > 100 µM; TGI (OVCAR-4 ovarian): > 100 µM; TGI (SW-620 colon): > 100 µM; TGI (DLD-1 colon): > 100 µM; TGI (CAKI-1 renal): > 100 µM; TGI (SK-MEL-2 melanoma): > 100 µM; TGI (SK-MEL-5 melanoma): > 100 µM; TGI (RPMI-8226 leukemia): > 100 µM; TGI (UACC-257 melanoma): > 100 µM; TGI (HT29 colon): > 100 µM; TGI (NCI-H226 lung): > 100 µM; TGI (XF 498 CNS): > 100 µM; TGI (MALME-3M melanoma): > 100 µM; TGI (HL-60(TB) leukemia): > 100 µM; TGI (SR leukemia): > 100 µM; TGI (OVCAR-8 ovarian): > 100 µM; TGI (SN12C renal): > 100 µM; TGI (A549 NSCLC): > 100 µM; TGI (SNB-78 CNS): > 100 µM; TGI (EKVX NSCLC): > 100 µM; TGI (HCC-2998 colon): > 100 µM; TGI (HCT-116 colon): > 100 µM; TGI (SNB-19 CNS): > 100 µM; TGI (LXFL 529 NSCLC): > 100 µM; TGI (TK-10 renal): > 100 µM; TGI (HCT-15 colon): > 100 µM; TGI (NCI-H460 lung): > 100 µM
